The text below walks through data of ChEMBL document CHEMBL4725287, “An in silico mechanistic insight into HDAC8 activation facilitates the discovery of new small-molecule activators” (Bioorg Med Chem, 2020).

SMILES strings stand for the structures.

Assay [1] has as its target T1, Histone deacetylase 8 (Homo sapiens) (UniProt Q9BY41).
T1 sequence (whole entry): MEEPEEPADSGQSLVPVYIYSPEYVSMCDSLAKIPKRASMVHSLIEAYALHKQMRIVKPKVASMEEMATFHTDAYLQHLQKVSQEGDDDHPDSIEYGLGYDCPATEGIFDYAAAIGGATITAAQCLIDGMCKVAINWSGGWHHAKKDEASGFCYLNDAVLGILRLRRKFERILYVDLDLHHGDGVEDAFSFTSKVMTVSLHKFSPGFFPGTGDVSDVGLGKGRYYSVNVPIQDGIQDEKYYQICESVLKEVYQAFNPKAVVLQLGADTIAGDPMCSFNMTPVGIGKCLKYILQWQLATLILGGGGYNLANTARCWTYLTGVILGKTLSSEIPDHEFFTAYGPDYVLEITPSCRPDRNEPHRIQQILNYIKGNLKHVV
The assay can be described thus: Substrate-dependent activation of HDAC8 (unknown origin) assessed as fold activation using FLUOR DE LYS as substrate at 20 uM incubated for 30 mins by fluorescence based assay relative to control. The following applies: filed as activator.

For a further assay, the target named is T2, Histone deacetylase 8 (Homo sapiens, UniProt Q9BY41).
T2 sequence (Q9BY41 whole entry): T1 sequence (whole entry)
Description: Substrate-dependent activation of HDAC8 (unknown origin) using FLUOR DE LYS as substrate incubated for 30 mins by fluorescence based assay.

Broadly, the EC50 is the concentration needed to bring the measured effect to its halfway point. Read a high EC50 as a less potent agent.

For the molecule `O=C(O)c1cccnc1S`, in assay [1], the fold change (FC) is 1.3. `Oc1cccc2cccnc12` [OXYQUINOLINE]: the fold change (FC) in assay [1] turned out to be 1.3. Also, a half-maximal response on Histone deacetylase 8 (EC50) required 11.1 µM. Consider `O=C(O)c1ccccc1S` [THIOSALICYLIC ACID], for which the fold change (FC) in assay [1] was found to be 1.3. For the same molecule, the concentration giving a half-maximal response (EC50) on Histone deacetylase 8 was determined as 16.9 µM. Turning to `Sc1nc2ccccc2o1`, the fold change (FC) in assay [1] worked out at 1.3. For `Nc1ncccc1O`, the fold change (FC) in assay [1] stood at 1.3. As to `Oc1ccccc1-c1nc2ccccc2s1`, the fold change (FC) in assay [1] is 1.3.
